Results reported in patent US20240366526A1, “COMPOSITIONS AND METHODS FOR MAINTAINING OR ENHANCING MICROBIAL BALANCE OF THE SKIN AND MUCOSA” (Reckitt Benckiser Health Limited, priority 2023, published 2024).

Legend:
Assay in all cases: MIC determination (EUCAST / ISO 20776 microdilution)
Format in all cases: cell-based
[1] = tested on: Gardnerella vaginalis LF1; conditions: clinical vaginal isolate; 37° C., microaerophilic, 24 and 48 h; single substance
Source text: The strains used were Lactobacillus crispatus LF6 and Lactobacillus gasseri LF7), one strain of Gardnerella vaginalis LF1 and one strain of Candida albicans LF, that correspond to clinical isolates collected from women vaginal cavity. The antimicrobial activity method was based on the current standards described by EUCAST (European Committee on Antimicrobial Susceptibility Testing) and ISO 20776-1 (2006) and ISO 20776-2-(2007) for determining the minimum inhibitory concentration (MIC). Terpinen-4-ol and Carvacrol were emulsified with DMSO (up to 1% (v/v)) in culture medium to obtain a concentration corresponding to 2× higher than the testing one. Sequential dilutions (1:2) were prepared in a sterile 96 wells plate with culture medium. […]
In parallel, calibrated suspensions of microorganisms were prepared with a cell density of 1.0 on the McFarland scale (Lactobacillus spp. and Candida albicans) and 0.13 absorbance (Gardnerella vaginalis), corresponding to 1×10^8 CFU/mL for bacteria (Lactobacillus spp. and Gardnerella vaginalis) and 1×10^6 CFU/mL for yeast (Candida albicans). […]
After homogenization of the working microbial suspension with dilutions of the two ingredients, the 96-well plates were incubated according to the incubation conditions suitable for each microorganism. […] After incubation, the wells were evaluated macroscopically to check for microorganism growth. […]

Candida albicans LF1 = tested on: Candida albicans LF1
Procedure: (§1) Sequential dilutions (1:2) were prepared in a sterile 96 wells plate with culture medium. All preparations were performed in aseptic conditions. For each of the ingredients tested, 8 concentrations were tested. […] De Man, Rogosa and Sharpe Broth (MRSB) media was used for growth of Lactobacillus spp., New York City III Broth ([…]) media and Roswell Park Memorial Institute 1640 (RPMI-1640) media was used respectively to grow Gardnerella vaginalis and Candida albicans. […] After homogenization of the working microbial suspension with dilutions of the two ingredients, the 96-well plates were incubated according to the incubation conditions suitable for each microorganism. For, L. crispatus and L. gasseri, incubation was done at 37° C. for 24 and 48h in microaerophilic atmosphere. […] After incubation, the wells were evaluated macroscopically to check for microorganism growth. Turbid wells indicated the presence of microbial growth, and clear wells indicated the absence of microbial growth. The lowest concentration tested in which wells without turbidity, correspondent to the minimum inhibitory concentration (MIC). To validate the test, three negative controls (sterility control of the culture medium; study substance dilutions with culture medium; emulsifier with culture medium) and two positive controls (growth control for each microorganism using culture media and growth control for each microorganism using emulsifier with culture media) were performed.

[2] = tested on: Lactobacillus crispatus LF6
Procedure: as §1

[3] = tested on: Lactobacillus gasseri LF7
Procedure: as §1

[4] = terpinen-4-ol 2.5 μl/ml and 5 μl/ml

SMILES	MIC for Gardenella vaginalis LF1 [1] [μl/ml]	inhibition for C. albicans LF1 (Candida albicans LF1; carvacrol 0.31 μl/ml) [%]	effect on Lactobacillus crispatus growth ([2]; carvacrol 0.31 μl/ml)	effect on Lactobacillus gasseri growth ([3]; carvacrol 0.31 μl/ml)	MIC for C. albicans LF1 (Candida albicans LF1; clinical vaginal isolate, 32.5° C., aerophilic, 24 and 48 h, single substance) [μl/ml]	effect on Lactobacillus crispatus growth [2, 4]	effect on Lactobacillus gasseri growth [3, 4]
Cc1ccc(C(C)C)cc1O [Carvacrol, carvacrol]	0.31	50	unaffected	unaffected	–	–	–
CC1=CCC(O)(C(C)C)CC1 (centres unmarked) [Terpinen-4-ol]	2.5	–	–	–	5	unaffected	unaffected
